# Laboratory results reported in patent US20260306421A1, “SYSTEMS AND METHODS FOR TRANSDERMAN PATCH DELIVERY” (VITAMAX PATCH WHOLESALER LLC, priority 2022, published 2026).
# Legend:
# [1] = Solubility of iron chloride hexahydrate and iron complexes (visual / assayed); assay type: physicochemical; settings: visual (*)
# Description: Due to the high number of test samples (6 complexes plus the starting material, iron chloride hexahydrate) a visual solubility screen was used to screen the solubility in a range of solvents. […] Quantitative determination was performed by either incubating the complex in excess in the solvent using a shaking 37° C. water bath for 48 h or sonicating it for 2 hours at 40° C. or leaving overnight on a 50° C. hot plate. Once incubation period was completed, the exact solubility in a particular solvent was assayed (using the iron assay) after centrifugation (i.e. assay iron content in the supernatant using the Ferrozine® assay).
# [2] = Iron adhesive patch skin permeation and deposition; assay type: in vitro ADME, porcine; settings: t-test p value, 0.5
# Description: To perform the skin permeation studies, dermatomed skin (1 mm) was glued onto the receiver compartment of the Franz cell that contained 80:20 PG:water. A zero hour sample was taken from the receiver fluid, the patches were placed on top of the skin and held in place by a small weight (8.75 g). The patches that were tested were A2, A3, A4 (Table 16) as well as the existing commercial iron transdermal patch. After 24 hours, the receiver fluid was assayed using the quantitative iron assay and a compatible calibration in the same medium (80:20 PG:water) was used. The skin deposition was determined by removing the dermatomed skin from the donor compartment when the 24 h was completed, chopping into smaller pieces using scissors and incubating with the extraction fluid, ethanol. The samples were then transferred to Eppendorf tubes containing one stainless steel 5 mm bead and loaded into the TissuLyser II (Qiagen, Germany) for 30 min 30 Hz. The samples were centrifuged (5 min at 13,000 rpm) and supernatant assayed for iron content.
# [3] = Iron complex adhesive compatibility and loading screen; assay type: physicochemical
# Description: Pre-formulation studies were performed to determine the compatibility of the iron complexes with a range of transdermal patch adhesives (Table 15).
# The compatibility of the complexes with the patch adhesives was assessed by mixing and visually checking the clarity of the mixture.
# In the adhesives that were computable with the iron complexes the maximum drug loading of the complexes in the adhesive following solvent evaporation was determined. This was achieved by mixing the drug, adhesive and co-solvents until a clear solution was obtained at different drug:adhesive ratios and placing few drops of the mixture onto the patch backing sheet, leaving it to dry for 3-4 h, and examining the formed film on the surface of the backings for evidence of drug crystals.
# Following complete drying of the solvents, the adhesive layer was covered by a release liner, compressed, and then cut using 34 mm circular manual die cutter (FIG. 23).
# [4] = Zinc ethyl maltol adhesive suitability (solubility/compatibility) screening; assay type: physicochemical
# Description: Pre-formulation studies were performed to determine the compatibility of zinc ethyl maltol with a variety of adhesives that could be used to manufacture a transdermal patch (Table 2). The compatibility of the zinc complexes with the patch excipients was evaluated by examining the clarity of the mixture upon mixing. […] Following patch optimisation, the optimised drug-adhesive solutions were cast in 10×10 cm^2 trays made of the patch backing (3M™ Scotchpak™ Polyester Backing Film Laminate 9730, 3M, Germany). An adequate volume of the adhesive was applied to achieve a target coating level of 8 mg/cm^2 (equivalent to 80 g/m^2). Following complete drying of the solvents, the adhesive layer was covered by an M3 Release liner (SCOTCHPAK 9755), compressed, and then cut using a 34 mm circular manual die cutter (SCP Super Cutting Press).
# [5] = Franz cell porcine skin permeation and deposition of zinc from solutions; assay type: in vitro ADME; settings: solution in PEG (6 mg/mL)
# [6] = as above; assay type: in vitro ADME; design: elemental zinc skin deposition: unit not given here
# Description: Porcine skin permeation studies were performed to compare the permeation of zinc chloride and the zinc ethyl maltol complex. The permeation of zinc chloride vs zinc ethyl maltol from PG saturated solutions (zinc chloride and zinc ethyl maltol solutions in PG was 2.45 and 2.10 mg/mL, respectively) and permeation of zinc chloride from PG statured solution vs zinc ethyl maltol from PEG400 saturated solutions were investigated (zinc ethyl maltol in PEG400 100 mg/mL). In addition, the permeation of the zinc ethyl complex from PEG400 saturated solution and PEG400:PEG1000 (8:2% w/w) was compared. For the PEG mixture, the zinc ethyl maltol donor was prepared by dissolving 60 mg of the complex in 3 mL of methanol and 1 mL of 80% w/w PEG400:20% w/w PEG 1000 then added. The solution was left overnight to allow the evaporation of methanol.
# Permeation studies were conducted using previously validated Franz cell method based on the principles of the FDA, SUPAC-SS guidelines [FDA (CDER), 1997, Guidance for industry—SUPAC-SS Non-sterile Semisolid Dosage Form, Scale-up and post-approval changes: chemistry, manufacturing, and controls; in vitro release testing and in vivo bioequivalence documentation](FIG. 4). On the day of the experiment, the porcine skin was defrosted and either prepared as full-thickness sheets but removing the fat or dermatome to a 1 mm thickness (Nouvag, AG). The tissue was cut into 34 mm circles to allow an exposure area of 2.19±0.21 cm^2 and positioned between donor and receiver compartments of Franz diffusion cells. Each piece of skin was sealed between the two compartments using parafilm (Bemis Company, Neenah, WI). A 12 mm magnetic stir bar was placed into the receiver compartment of each Franz cell. The receiver compartment was loaded with 50 mM phosphate-buffered saline (pH 7.4). The cell sealing was verified by Franz cell inversion (6 times) and monitoring solvent back diffusion. The temperature of the Franz diffusion was set at 37° C. in a water bath to reach a skin temperature of 32° C. After 1 h equilibration at 37° C. in the water bath, 1 mL of receiver fluid was withdrawn (time point=0 min), and a fresh receiver solution was replaced into the cell to keep the volume consistent. Each formulation (1 mL) was applied in the donor compartment that was then covered with parafilm to avoid evaporation. After 24 h, the receiver fluid was collected and analysed by HPLC.
# At the end of the permeation studies, the Franz cells were dismantled. The donor solutions were collected from each cell and transferred into 5-mL glass bottles containing 2 mL of PDCA as extraction fluid. This step was followed by wiping the skin surface and the donor compartment with two wet (wetted with extraction fluid) and then two dry cotton buds. The skin's permeation area was then cut into small pieces by scalpels and placed into a 5 mL glass bottle containing 4 mL of extraction fluid. All skin samples were kept at the bench with extraction fluid for 1 hour. This step was followed by separating each vial's content (cut skin and extraction fluid) into 2 mL Eppendorf tubes that were then loaded in TissuLyser machine for 20 minutes. Samples were then centrifuged for 15 minutes at 13,000 rpm. The content of each Eppendorf tube was filtered using 0.45 µm syringe filters, collected, and analysed by HPLC.
# [7] = Solubility of zinc chloride and zinc complexes (visual / HPLC); assay type: physicochemical
# Description: Accurate measurement of the solubility was then repeated for some of the solvent systems by HPLC. In the HPLC solubility studies, an excess of the test agents was loaded into 2 mL of each test solvent. The solutions were left stirring overnight at 32° C. […] The drug suspensions were then centrifuged, the supernatant diluted, and each sample concentration was measured using HPLC.
# [8] = Zinc ethyl maltol reservoir co-solvent solubility screening; assay type: physicochemical; settings: for Solubility in PEG400:PEG1000: 3 mL methanol
# Description: Pre-formulation studies were completed to optimise the solubility of zinc ethyl maltol using a variety of co-solvents that could be applied to the skin, such as Transcutol and ethanol. Polymers such as PEG 1000, Natrsol M250, and PVP were used to aid the solubilisation process. The compatibility of the complex with the solvents was evaluated by examining the clarity of the mixture. Following the optimisation of the complex solubility, the reservoir patch was developed using the backing layer, drug in solution, and liner release layer. The backing used was 3M™ Scotchpak™ Polyester Backing Film Laminate 9730. Different liner release membranes were investigated including, regenerated cellulose (12-14 k molecular weight cut-off Medical International UK), nylon (0.20 μm, Whatman, UK), and CoTran 9728 (3M, Germany). A 200 μL aliquot of zinc ethyl maltol complex in solution was applied on the liner release membrane, then covered by the backing layer and all layers thermally sealed (HeatPress machine HP230B).
# The solution left to evaporate overnight to form a supersaturated solution (Table 4). This solution was then loaded into the reservoir patch.
smiles,measurement,setting,value
"O=c1cc(CO)occ1[O-].O=c1cc(CO)occ1[O-].O=c1cc(CO)occ1[O-].[Fe+3] [Iron kojic, iron kojic acid]",Solubility of complex (visual),[1]; Chloroform,<6 mg/mL Iron kojic*
same,Solubility of complex (visual),[1]; Ethyl acetate,<6 mg/mL Iron kojic*
same,Solubility of complex (visual),[1]; Glycerol,<6 mg/mL Iron kojic*
same,Solubility of complex (visual),[1]; Hexane,<6 mg/mL Iron kojic*
same,Solubility of complex (visual),[1]; Methanol,≥18 mg/mL Iron kojic*
same,Solubility of complex (visual),[1]; Oleic acid,<6 mg/mL Iron kojic*
same,Solubility of complex (visual),[1]; PEG400,<6 mg/mL Iron kojic*
same,Solubility of complex (visual),[1]; PG,≥8 mg/mL Iron kojic*
same,Solubility of complex (visual),[1]; Propanol,<6 mg/mL Iron kojic*
same,Solubility of complex (visual),[1]; Transcutul,≥ 8 mg/mL Iron kojic*
same,Solubility of complex (visual),[1]; Triaceten,<6 mg/mL Iron kojic*
same,deposition compared to existing commercial iron transdermal patch,[2],no significant difference
same,compatibility with adhesives,[3],only compatible with DURO-TAK 9301
same,Solubility in DURO-TAK 9301 patch,"[3]; drug loading 4%, 2 mg PG",Clear
same,Solubility in DURO-TAK 9301 patch,"[3]; drug loading 4%, no permeation enhancer",Clear
same,Solubility in DURO-TAK 9301 patch,"[3]; drug loading 7%, 8 mg Maltol",Precipitated
same,Solubility in DURO-TAK 9301 patch,"[3]; drug loading 7.5%, 4 mg PG",Precipitated
same,Solubility in DURO-TAK 9301 patch,"[3]; drug loading 8%, no permeation enhancer",Precipitated
same,Solubility in DURO-TAK 9301 patch,"[3]; drug loading 10%, 5.5 mg PG",Precipitated
same,Solubility in DURO-TAK 9301 patch,"[3]; drug loading 10%, 5.5 mg Transcutol",Precipitated
same,Solubility in DURO-TAK 9301 patch,"[3]; drug loading 10%, no permeation enhancer",Precipitated
same,(maximum) complex loading achieved in adhesive,[3]; methanol stock solution 10 mg/mL,4%
same,complex loading achieved in adhesive patch,[3]; methanol stock solution 18 mg/mL,8.5%
"CCc1occc(=O)c1[O][Zn][O]c1c(CC)occc1=O [Zinc Ethyl Maltol, zinc ethyl maltol]",Solubility in DURO-TAK 9301,"[4]; drug loading 5%, no Transcutol",Not Soluble
same,Solubility in DURO-TAK 9301,"[4]; drug loading 7.4%, Transcutol 12.5 mg",Soluble
same,Solubility in DURO-TAK 9301,"[4]; drug loading 7.5%, no Transcutol",Not Soluble
same,Solubility in DURO-TAK 9301,"[4]; drug loading 10%, no Transcutol",Not Soluble
same,Solubility in DURO-TAK 9301,"[4]; drug loading […], no Transcutol",Not Soluble
same,permeation of elemental zinc,[5],173.6 μg/cm^2
same,transdermal permeation of elemental zinc,"[6]; 1 mL PG solution, 24 h",4.85 µg/cm^2
same,permeation of elemental zinc,[6]; solution in PG ([…]),41 μg/cm^2
same,daily dose delivered by the solution,"[6]; solution, extrapolated",approximately 2 mg
same,elemental zinc passed through the skin,[6]; supersaturated solution (conclusions),237.93 μg/cm^2
same,elemental zinc permeated through the skin,"[6]; supersaturated solution in PEG400:PEG1000 (8% w/w:2% w/w), 24 h",238 µg/cm^2
same,elemental zinc skin deposition,"[6]; vehicle PEG400, 24 h",44.84
same,transdermal permeation of elemental zinc,"[6]; vehicle PEG400, 24 h",174 µg/cm^2
same,transdermal permeation compared to zinc chloride,[6]; zinc ethyl maltol in PEG400 vs zinc chloride in PG,4.8 fold
same,Elemental zinc solubility evaluated by HPLC,[7]; solvent PEG400,6600 µg/mL
same,Elemental zinc solubility evaluated by HPLC,[7]; solvent PG,2100 µg/mL
same,Elemental zinc solubility evaluated by HPLC,[7]; solvent Transcutol,6000 µg/mL
same,Solubility in PEG400:PEG1000,"[8]; 60 mg, 1 mL PEG400:PEG1000 (2% w/w:8% w/w)",Not soluble
same,Solubility in PEG400:PEG1000,"[8]; 60 mg, 1 mL PEG400:PEG1000 (6% w/w:4% w/w)",Not soluble
same,Solubility in PEG400:PEG1000,"[8]; 60 mg, 1 mL PEG400:PEG1000 (8% w/w:2% w/w)",Soluble
same,Solubility in PEG400:PEG1000,"[8]; 80 mg, 1 mL PEG400:PEG1000 (6% w/w:4% w/w)",Not soluble
same,Solubility in PEG400:PEG1000,"[8]; 80 mg, 1 mL PEG400:PEG1000 (8% w/w:2% w/w)",Not soluble
same,Solubility in PEG400:PEG1000,"[8]; 100 mg, 1 mL PEG400:PEG1000 (6% w/w:4% w/w)",Not soluble
same,Solubility in PEG400:PEG1000,"[8]; 100 mg, 1 mL PEG400:PEG1000 (8% w/w:2% w/w)",Not soluble
same,Solubility in PEG400:PEG1000,"[8]; 120 mg, 1 mL PEG400:PEG1000 (6% w/w:4% w/w)",Not soluble
same,Solubility in PEG400:PEG1000,"[8]; 120 mg, 1 mL PEG400:PEG1000 (8% w/w:2% w/w)",Not soluble
same,maximum solubility of zinc ethyl maltol complex,[8]; PEG400,30000 µg/mL
same,elemental zinc achieved in supersaturated solution,[8]; supersaturated solution based on PEG400/PG6000,28.8 mg/mL
